Results published in patent publication US4228167A, “Diuretic and vasodilating tricyclic quinazolines” (Sumitomo Chemical Company, Limited, priority 1977, dated 1980).
Converted amounts (≈) assume the structure as drawn. Read-outs that look alike come from different tables or passages of the source.

Key:
rat aortic strips = assay: Vasodilating activity: relaxation of isolated rat aortic strips contracted with potassium chloride; details: read-out: Median effective concentration (ED50)
Protocol: Vasodilating activity was examined by use of the method described by N. Tada et al., J. Pharmacol. Exp. Ther., 191, 139 (1974). The rat aortic strips were isolated and contracted using 30 mM of potassium chloride. Dose dependent relaxation in the aortic strips was observed by adding the test compounds. At the end of each experiment, papaverine in a concentration of 3×10^-5 g/ml was added and the relaxation induced was taken as 100%. Median effective concentration (ED50) was obtained from dose response curves.

[1] = Diuretic activity (urinary excretion) in rats; type: in vivo; details: standard dose of 10 mg/kg; for Urinary excretion K^30: potassium, control 0.53; for Urinary excretion Na^+ /K^ +: ratio, control 2.9; for Urinary excretion Na^30: sodium, control 1.5; for Urinary excretion: urine volume, control 9.5
Protocol: Diuretic activity was evaluated according to the method described by W. L. Lipschits et al., J. Pharmacol. Exp. Ther., 79, 97 (1943). The results in rats are shown in Table I, where the data for a standard dose of 10 mg/kg is listed for the purpose of comparison.

[2] = rat aortic strips contracted with 30 mM potassium chloride, relaxation by papaverine 3×10^-5 g/ml taken as 100%

EC50 (rat aortic strips; [2]) [µg/mL]	Compound	EC50 (rat aortic strips; Rattus norvegicus) [µg/mL]	Urinary excretion K^30 [1] [mequiv/kg]	Urinary excretion Na^+ /K^ + [1]	Urinary excretion Na^30 [1] [mequiv/kg]	Urinary excretion [1] [mL/kg]
0.24 (≈ 0.71 µM)	Clc1ccc2c(c1)N(CC1CC1)C1=NCCN1C2c1ccccc1 (stereo not shown) [8-Cl, H, H, [drawing 3], H, CH2 CH2, 8-Chloro-10-cyclopropylmethyl-5-phenyl-2,3,5,10-tetrahydroimidazo[2,1-b]quinazoline]		0.92	4.0	3.7	26.8
0.27 (≈ 0.763 µM)	CCCCN1C2=NCCCN2C(c2ccccc2)c2cc(Cl)ccc21 (stereo not shown) [8-Cl, H, H, n-Bu, H, CH2 CH2 CH2, 8-Chloro-11-(n-butyl)-6-phenyl-3,4,6,11-tetrahydro-2H-pyrimido[2,1-b]quinazoline]					
1 (≈ 3 µM)	COc1ccc2c(c1)C(c1ccccc1)N1CCN=C1N2CC1CC1 (stereo not shown) [7-MeO, H, H, [drawing 6], H, CH2 CH2, 10-Cyclopropylmethyl-7-methoxy-5-phenyl-2,3,5,10-tetrahydroimidazo[2,1-b]quinazoline]					
0.29 (≈ 0.824 µM)	Clc1ccc2c(c1)N(CC1CC1)C1=NCCCN1C2c1ccccc1 (stereo not shown) [9-Cl, H, H, [drawing 4], H, CH2 CH2 CH2, 9-Chloro-11-cyclopropylmethyl-6-phenyl-3,4,6,11-tetrahydro-2H-pyrimido[2,1-b]quinazoline]		0.78	6.1	4.7	34.3

Further lines, the compound ahead of its results:

Compound	EC50 (rat aortic strips; [2]) [µg/mL]	EC50 (rat aortic strips; Rattus norvegicus) [µg/mL]	Urinary excretion K^30 [1] [mequiv/kg]	Urinary excretion Na^+ /K^ + [1]	Urinary excretion Na^30 [1] [mequiv/kg]	Urinary excretion [1] [mL/kg]
COc1ccc(Cc2nccc3cc(OC)c(OC)cc23)cc1OC [Papaverine, reference compound]		4.6 (≈ 13.6 µM)				
CN1C2=NCCCN2C(c2ccccc2)c2cc(Cl)ccc21 (stereo not shown) [8-Cl, H, H, Me, H, CH2 CH2 CH2, 8-chloro-11-methyl-6-phenyl-3,4,6,11-tetrahydro-2H-pyrimido[2,1-b]quinazoline]			0.97	5.6	5.6	38.3
CCCCN1C2=NCCN2C(c2ccccc2)c2cc(Cl)ccc21 (stereo not shown) [7-Cl, H, H, n-Bu, H, CH2 CH2, 7-chloro-10-(n-butyl)-5-phenyl-2,3,5,10-tetrahydroimidazo[2,1-b]quinazoline]			0.86	5.3	4.5	31.1
CN1C2=NCCN2C(O)(c2ccc(Cl)cc2)c2ccccc21 (stereo not shown) [H, H, p-Cl, Me, OH, CH2 CH2, 5-(p-chlorophenyl)-5-hydroxy-10-methyl-2,3,5,10-tetrahydroimidazo[2,1-b]quinazoline]			0.84	5.2	4.4	32.6
